Our source for the IC50 and Selectivity values is patent US9533985B2, “Sulfonamide derivative and medicinal use thereof” (EA Pharma Co., Ltd., priority 2012, dated 2017).

pIC50: −log10 of the molar value.

The term pIC50 denotes −log10 of the IC50, conventionally taken in molar units.

What all share (type): cell-based
The target of assay [1] is T1, α4β7 integrin (Homo sapiens (Human), UniProt P13612+P26010). Briefly: MAdCAM-1/α4β7 integrin binding inhibitory activity evaluation test in the presence of serum (1). The conditions noted are these: RPMI-8866 cells binding to mouse MAdCAM-1/Fc, human serum at final concentration of 50%; read-out: α4β7 with serum added, IC50. The method, then:
(§1) The ability of test substances to inhibit the binding of a human B cell line, RPMI-8866, which is known to express α4β7 integrin, to MAdCAM-1 was measured. To 96-well microtiter plates, recombinant mouse MAdCAM-1/Fc (R&D systems) solution (1 μg/mL) diluted with buffer A (carbonate buffer, pH 9.6) was added at 50 μL/well, followed by incubation at 4° C. overnight. After washing once with PBS, Block Ace (Snow Brand Milk Products Company, Limited) was added at 150 μL/well, followed by incubation at room temperature for 2 hours. After removal, washing was conducted once with PBS. 100 μL of each test substance diluted with a binding buffer (DMEM containing 40 mM HEPES, 0.2% BSA, and 4 mM MnCl2) to various concentrations and 100 μL of RPMI-8866 cells (2×10^6 cell/mL) were added to plates coated with MAdCAM-1/Fc (5×10^5 cells/well) with human serum being contained at a final concentration of 50%, followed by incubation at 30° C. for 15 minutes to 60 minutes. After the cells were bound to each well, unbound cells were removed by washing with PBS. To the plates, buffer C (PBS containing 1.5% Triton X-100) was added at 50 μL/well to lyse the bound RPMI-8866 cells. To 30 μL of the cell lysate, 30 μL of Substrate Buffer (Promega, CytoTox 96 Non-Radioactive Cytotoxicity Assay) was added, and the reaction was allowed to proceed at room temperature in a dark place for 30 minutes. To each well, 30 μL of Stop Solution (Promega, CytoTox 96 Non-Radioactive Cytotoxicity Assay) was added, and the absorbance at 490 nm was measured by using a plate reader. Here, by the obtained absorbance, the activity of the lactate dehydrogenase (LDH) dissolved into the supernatant of each well was detected. In other words, the absorbance was proportional to the number of the RPMI-8866 cells bound to MAdCAM-1 and remaining on the plate. The test was duplicated. The binding ratios of the cells at various concentrations were determined, with the absorbance of a well containing no test substance taken as 100%. Then, the concentration IC50, at which 50% binding inhibition was achieved, was calculated.

The target of the next assay is α4β1 integrin (Homo sapiens (Human), UniProt P05556+P13612). The assay can be described thus: VCAM-1/α4β1 integrin binding inhibitory activity evaluation test (Jurkat cell adhesion to VCAM-1/Fc). The following applies: Jurkat cells binding to recombinant human VCAM-1/Fc. The method, then:
The ability of test substances to inhibit the binding of a human T-cell line, Jurkat, which is known to express α4β1 integrin, to VCAM-1 was measured. To 96-well microtiter plates, recombinant human VCAM-1/Fc (R&D systems) solution (1 μg/mL) diluted with buffer A (carbonate buffer, pH 9.6) was added at 50 μL/well, followed by incubation at 4° C. overnight. After washing once with PBS, Block Ace (Snow Brand Milk Products Company, Limited) was added at 150 μL/well, followed by incubation at room temperature for 2 hours. After removal, washing was conducted once with PBS. 100 μL of each test substance diluted with a binding buffer (DMEM containing 40 mM HEPES, 0.2% BSA, and 4 mM MnCl2) to various concentrations and 100 μL of the Jurkat cells (2×10^6 cell/mL) were added to the plates coated with VCAM-1/Fc (5×10^5 cells/well), followed by incubation at 30° C. for 15 minutes to 60 minutes. After the cells were bound to each well, unbound cells were removed by washing with PBS. To the plates, buffer C (PBS containing 1.5% Triton X-100) was added at 50 μL/well to lyse the bound Jurkat cells. To 30 μL of the cell lysate, 30 μL of Substrate Buffer (Promega, CytoTox 96 Non-Radioactive Cytotoxicity Assay) was added, and the reaction was allowed to proceed at room temperature in a dark place for 30 minutes. To each well, 30 μL of Stop Solution (Promega, CytoTox 96 Non-Radioactive Cytotoxicity Assay) was added, and the absorbance at 490 nm was measured by using a plate reader. Here, by the obtained absorbance, the activity of the lactate dehydrogenase (LDH) dissolved into the supernatant of each well was detected. In other words, the absorbance was proportional to the number of the Jurkat cells bound to VCAM-1 and remaining on the plate. The test was duplicated. The binding ratios of the cells at various concentrations were determined, with the absorbance of a well containing no test substances taken as 100%. Then, the concentration IC50, at which 50% binding inhibition was achieved, was calculated. […] Note that, among the compounds synthesized in the corresponding Examples, the compounds in the free form (Compounds A-1 to A-39) were used as the test compounds. Hereinafter, the same shall apply.

The target in assay [2] is T1, α4β7 integrin. Briefly: MAdCAM-1/α4β7 integrin binding inhibitory activity evaluation test (RPMI-8866 cell adhesion to MAdCAM-1/Fc). The following applies: for Selectivity: IC50 in VCAM-1/α4β1 test divided by IC50 in MAdCAM-1/α4β7 test; for pIC50: RPMI-8866 cells binding to recombinant mouse MAdCAM-1/Fc, no serum. The method, then: as §1, with “systems) solution (0.75 μg/mL) diluted” for “systems) solution (1 μg/mL) diluted”, “A (carbonate buffer solution, pH 9.6)” for “A (carbonate buffer, pH 9.6)”, “diluted with binding buffer” for “diluted with a binding buffer”, “added to the plates coated” for “added to plates coated”, “MAdCAM-1/Fc (5×10^5 cells/well), followed by” for “MAdCAM-1/Fc (5×10^5 cells/well) with human serum being contained at a final concentration of 50%, followed by”, “was calculated. […] Note that the selectivity in the table was determined by dividing the IC50 value in VCAM-1/α4β1 Integrin Binding Inhibitory Activity Evaluation Test by the IC50 value in the MAdCAM-1/α4β7 integrin binding inhibitory activity evaluation test.” for “was calculated.”

Chain of α4β1 integrin (P13612 34-1032): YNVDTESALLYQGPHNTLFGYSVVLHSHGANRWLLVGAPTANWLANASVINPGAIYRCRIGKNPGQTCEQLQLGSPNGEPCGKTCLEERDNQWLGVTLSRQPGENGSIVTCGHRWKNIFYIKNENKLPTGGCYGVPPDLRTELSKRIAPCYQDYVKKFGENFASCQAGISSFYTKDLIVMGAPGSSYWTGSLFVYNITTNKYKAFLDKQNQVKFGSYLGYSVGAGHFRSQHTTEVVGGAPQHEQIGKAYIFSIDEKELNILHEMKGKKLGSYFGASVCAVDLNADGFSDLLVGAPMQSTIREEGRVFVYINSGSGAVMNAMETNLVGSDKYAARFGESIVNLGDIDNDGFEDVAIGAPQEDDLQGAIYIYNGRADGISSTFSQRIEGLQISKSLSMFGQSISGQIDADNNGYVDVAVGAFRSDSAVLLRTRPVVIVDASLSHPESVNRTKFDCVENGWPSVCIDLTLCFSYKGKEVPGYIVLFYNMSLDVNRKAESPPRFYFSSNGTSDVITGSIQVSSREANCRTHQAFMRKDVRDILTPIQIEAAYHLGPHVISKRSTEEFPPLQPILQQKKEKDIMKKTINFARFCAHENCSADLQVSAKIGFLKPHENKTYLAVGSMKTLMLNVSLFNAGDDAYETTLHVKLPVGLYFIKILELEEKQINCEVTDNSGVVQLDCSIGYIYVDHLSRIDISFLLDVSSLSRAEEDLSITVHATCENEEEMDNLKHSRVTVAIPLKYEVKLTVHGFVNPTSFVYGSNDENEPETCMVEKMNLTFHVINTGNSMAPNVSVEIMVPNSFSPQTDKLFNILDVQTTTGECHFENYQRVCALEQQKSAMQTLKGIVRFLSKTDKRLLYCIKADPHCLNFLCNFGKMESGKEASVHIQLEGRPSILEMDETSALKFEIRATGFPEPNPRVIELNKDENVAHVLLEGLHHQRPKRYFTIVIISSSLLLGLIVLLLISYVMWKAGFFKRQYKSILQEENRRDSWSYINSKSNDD
Chain of α4β1 integrin (P05556 21-798): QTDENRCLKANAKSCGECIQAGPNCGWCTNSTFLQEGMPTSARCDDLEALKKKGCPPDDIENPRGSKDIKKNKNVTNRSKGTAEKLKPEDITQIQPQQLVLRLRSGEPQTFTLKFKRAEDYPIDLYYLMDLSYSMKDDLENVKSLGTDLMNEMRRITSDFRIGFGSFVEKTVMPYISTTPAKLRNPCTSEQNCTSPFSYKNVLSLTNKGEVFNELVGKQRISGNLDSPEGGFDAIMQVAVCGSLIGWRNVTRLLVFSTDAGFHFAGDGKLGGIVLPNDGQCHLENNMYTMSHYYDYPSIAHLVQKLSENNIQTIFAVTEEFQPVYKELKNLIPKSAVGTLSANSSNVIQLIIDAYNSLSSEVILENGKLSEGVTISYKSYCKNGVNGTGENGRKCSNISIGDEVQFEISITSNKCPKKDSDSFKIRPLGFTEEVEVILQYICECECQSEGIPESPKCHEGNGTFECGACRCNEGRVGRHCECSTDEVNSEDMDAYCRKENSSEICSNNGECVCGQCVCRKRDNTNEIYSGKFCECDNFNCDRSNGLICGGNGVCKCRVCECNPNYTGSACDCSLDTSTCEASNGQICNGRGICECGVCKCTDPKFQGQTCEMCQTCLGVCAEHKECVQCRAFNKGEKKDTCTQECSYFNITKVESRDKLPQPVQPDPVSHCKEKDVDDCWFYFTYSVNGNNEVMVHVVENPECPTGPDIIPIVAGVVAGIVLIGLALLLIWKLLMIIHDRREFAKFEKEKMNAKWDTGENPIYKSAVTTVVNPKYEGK
T1 sequence (P13612 34-1032): as the sequence (P13612 34-1032) above
T1 sequence (P26010 20-798): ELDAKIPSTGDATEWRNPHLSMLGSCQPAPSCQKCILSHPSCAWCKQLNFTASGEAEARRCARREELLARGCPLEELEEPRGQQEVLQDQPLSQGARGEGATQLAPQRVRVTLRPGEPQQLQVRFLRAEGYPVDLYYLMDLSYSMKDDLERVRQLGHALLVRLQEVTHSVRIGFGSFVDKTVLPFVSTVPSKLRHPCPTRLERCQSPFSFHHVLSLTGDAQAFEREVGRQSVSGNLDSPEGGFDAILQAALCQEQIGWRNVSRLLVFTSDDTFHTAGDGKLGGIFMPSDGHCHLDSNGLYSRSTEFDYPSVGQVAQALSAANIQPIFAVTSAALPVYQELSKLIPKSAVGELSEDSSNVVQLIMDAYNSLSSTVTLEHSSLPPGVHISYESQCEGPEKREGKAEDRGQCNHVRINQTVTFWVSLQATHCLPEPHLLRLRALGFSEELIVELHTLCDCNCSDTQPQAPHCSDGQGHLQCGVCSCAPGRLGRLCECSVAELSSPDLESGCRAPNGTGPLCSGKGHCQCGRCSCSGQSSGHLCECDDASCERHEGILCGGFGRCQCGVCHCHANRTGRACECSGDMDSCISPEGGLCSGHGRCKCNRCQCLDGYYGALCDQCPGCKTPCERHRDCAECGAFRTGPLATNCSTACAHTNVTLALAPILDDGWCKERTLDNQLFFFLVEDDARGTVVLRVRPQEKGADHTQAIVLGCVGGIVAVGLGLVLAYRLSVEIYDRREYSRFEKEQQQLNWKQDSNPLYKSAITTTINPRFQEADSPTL

For the compound `Cn1c(=O)n(-c2ccc(C[C@H](NC(=O)c3c(F)cc(NS(=O)(=O)c4ccc(-c5ccncc5)nc4)cc3F)C(=O)O)cc2)c(=O)c2ccncc21` [Example 42, N-{4-[(2,4′-Bipyridin-5-yl-sulfonyl)amino]-2,6-difluorobenzoyl}-4-(1-methyl-2,4-dioxo-1,4-dihydropyrido[3,4-d]pyrimidin-3(2H)-yl)-L-phenylalanine], the pIC50 is 8.06 at α4β7 integrin [1], 7.28 at α4β1 integrin and 9.57 at α4β7 integrin [2]. The Selectivity on α4β7 integrin [2] was found to be 190.

As to `Cn1c(=O)n(-c2ccc(C[C@H](NC(=O)c3c(F)cc(NS(=O)(=O)c4ccc(-c5ncccn5)cc4)cc3F)C(=O)O)cc2)c(=O)c2ccncc21` [Example 41, N-(2,6-Difluoro-4-{[(4-pyrimidin-2-yl-phenyl)sulfonyl]amino}benzoyl)-4-(1-methyl-2,4-dioxo-1,4-dihydropyrido[3,4-d]pyrimidin-3(2H)-yl)-L-phenylalanine], the negative logarithm of the IC50 (pIC50) at α4β7 integrin [1] was 8.19; on α4β1 integrin, 6.89; at α4β7 integrin [2] it was 9.59. This compound also gave a Selectivity on α4β7 integrin [2] of 500.

Turning to `COc1ccc2c(c1)c(=O)n(-c1ccc(C[C@H](NC(=O)c3c(F)cc(NS(=O)(=O)c4ccc(-n5ccnn5)cc4)cc3F)C(=O)O)cc1)c(=O)n2C` [Example 51, N-[2,6-Difluoro-4-({[4-(1H-1,2,3-triazol-1-yl)phenyl]sulfonyl}amino)benzoyl]-4-(6-methoxy-1-methyl-2,4-dioxo-1,4-dihydroquinazolin-3(2H)-yl)-L-phenylalanine], the pIC50 on α4β7 integrin [1] is 7.68; on α4β1 integrin, 5.82; at α4β7 integrin [2], 8.16. The compound also showed a Selectivity on α4β7 integrin [2] of 220.

With `Cc1cc(-c2ccc(S(=O)(=O)Nc3cc(F)c(C(=O)N[C@@H](Cc4ccc(-n5c(=O)c6c(ncn6C)n(C)c5=O)cc4)C(=O)O)c(F)c3)cc2)ccn1` [Example 74, N-[2,6-Difluoro-4-({[4-(2-methylpyridin-4-yl)phenyl]sulfonyl}amino)benzoyl]-4-(3,7-dimethyl-2,6-dioxo-2,3,6,7-tetrahydro-1H-purin-1-yl)-L-phenylalanine], the pIC50 on α4β7 integrin [1] was 7.96; on α4β1 integrin it was 6.28; at α4β7 integrin [2] it was 9.41. This compound displayed a Selectivity at α4β7 integrin [2] of 1300.

Take `Cn1c(=O)n(-c2ccc(C[C@H](NC(=O)c3c(F)cc(NS(=O)(=O)c4ccc(-c5nccs5)cn4)cc3F)C(=O)O)cc2)c(=O)c2ccncc21` [Example 59, N-[2,6-Difluoro-4-({[5-(1,3-thiazol-2-yl)pyridin-2-yl]sulfonyl}amino)benzoyl]-4-(1-methyl-2,4-dioxo-1,4-dihydropyrido[3,4-d]pyrimidin-3(2H)-yl)-L-phenylalanine]: the pIC50 is 8.39 on α4β7 integrin [1], 7.66 on α4β1 integrin and 9.77 on α4β7 integrin [2]. Also, the Selectivity on α4β7 integrin [2] is given as 130.

On to `Cn1c(=O)n(-c2ccc(C[C@H](NC(=O)c3c(F)cc(NS(=O)(=O)c4ccc(-n5nccn5)cc4)cc3F)C(=O)O)cc2)c(=O)c2ccncc21` [Example 61, N-[2,6-Difluoro-4-({[4-(2H-1,2,3-triazol-2-yl)phenyl]sulfonyl}amino)benzoyl]-4-(1-methyl-2,4-dioxo-1,4-dihydropyrido[3,4-d]pyrimidin-3(2H)-yl)-L-phenylalanine], for which the pIC50 is 8.06 on α4β7 integrin [1], 6.82 on α4β1 integrin and 9.34 on α4β7 integrin [2]. In addition, on α4β7 integrin [2], the Selectivity turned out to be 330.

Regarding `Cn1c(=O)n(-c2ccc(C[C@H](NC(=O)c3ccc(NS(=O)(=O)c4ccncc4)cc3F)C(=O)O)cc2)c(=O)c2ccncc21` [Example 39, N-{2-Fluoro-4-[(pyridin-4-yl-sulfonyl)amino]benzoyl}-4-(1-methyl-2,4-dioxo-1,4-dihydropyrido[3,4-d]pyrimidin-3(2H)-yl)-L-phenylalanine], the values for the pIC50 at α4β7 integrin [1], on α4β1 integrin and on α4β7 integrin [2] were 7.57, 6.85 and 9.08, respectively. Besides, the Selectivity at α4β7 integrin [2] came to 170.

In the case of `Cn1c(=O)n(-c2ccc(C[C@H](NC(=O)c3c(F)cc(NS(=O)(=O)c4ccc(-c5ccncc5)cc4)cc3F)C(=O)O)cc2)c(=O)c2ccncc21` [Example 67, N-(2,6-Difluoro-4-{[(4-pyridin-4-yl-phenyl)sulfonyl]amino}benzoyl)-4-(1-methyl-2,4-dioxo-1,4-dihydropyrido[3,4-d]pyrimidin-3(2H)-yl)-L-phenylalanine], the values for the pIC50 at α4β7 integrin [1], on α4β1 integrin and on α4β7 integrin [2] were 7.96, 6.68 and 9.26, respectively. Moreover, at α4β7 integrin [2], the Selectivity came to 380.

Turning to `Cn1c(=O)n(-c2ccc(C[C@H](NC(=O)c3c(F)cc(NS(=O)(=O)c4ccc(C5=CCNCC5)cc4)cc3F)C(=O)O)cc2)c(=O)c2ccncc21` [Example 69, N-[2,6-Difluoro-4-({[4-(1,2,3,6-tetrahydropyridin-4-yl)phenyl]sulfonyl}amino)benzoyl]-4-(1-methyl-2,4-dioxo-1,4-dihydropyrido[3,4-d]pyrimidin-3(2H)-yl)-L-phenylalanine], the pIC50 at α4β7 integrin [1] is 8.89; at α4β1 integrin, 7.51; at α4β7 integrin [2] it was 9.68. The Selectivity on α4β7 integrin [2] came to 150.
